Measurements taken from paper PMC12016531 (Applied and Environmental Microbiology, 2025).

Key:
[1] = tested on: L. monocytogenes ATCC 15313; assay: MIC/MBC microdilution; assay type: cell-based, Listeria monocytogenes; conditions: lowest concentration that killed 99.9%; TSB-YE; highest concentration 100 µM
[2] = tested on: L. monocytogenes CMCC 54002; assay: MIC/MBC microdilution; assay type: cell-based, Listeria monocytogenes; conditions: lowest concentration that killed 99.9%; TSB-YE; highest concentration 100 µM
[3] = tested on: L. monocytogenes ATCC 51780; assay: MIC/MBC microdilution; assay type: cell-based, Listeria monocytogenes; conditions: lowest concentration that killed 99.9%; TSB-YE; highest concentration 100 µM
[4] = tested on: L. monocytogenes ATCC BAA-751; assay: MIC/MBC microdilution; assay type: cell-based, Listeria monocytogenes; conditions: lowest concentration that killed 99.9%; TSB-YE; highest concentration 100 µM
[5] = tested on: L. monocytogenes ATCC 19112; assay: MIC/MBC microdilution; assay type: cell-based, Listeria monocytogenes; conditions: lowest concentration that killed 99.9%; TSB-YE; highest concentration 100 µM
[6] = tested on: L. monocytogenes ATCC 7644; assay: MIC/MBC microdilution; assay type: cell-based, Listeria monocytogenes; conditions: lowest concentration that killed 99.9%; TSB-YE; highest concentration 100 µM
[7] = tested on: L. monocytogenes ATCC 19113; assay: MIC/MBC microdilution; assay type: cell-based, Listeria monocytogenes; conditions: lowest concentration that killed 99.9%; TSB-YE; highest concentration 100 µM
L. monocytogenes LM201 = assay: MIC/MBC microdilution; assay type: cell-based, Listeria monocytogenes; conditions: lowest concentration that killed 99.9%; TSB-YE; highest concentration 100 µM
L. monocytogenes LM605 = assay: MIC/MBC microdilution; assay type: cell-based, Listeria monocytogenes; conditions: lowest concentration that killed 99.9%; TSB-YE; highest concentration 100 µM
[8] = tested on: L. monocytogenes ATCC 19115; assay: MIC/MBC microdilution; assay type: cell-based, Listeria monocytogenes; conditions: lowest concentration that killed 99.9%; TSB-YE; highest concentration 100 µM
[9] = tested on: L. monocytogenes ATCC 13932; assay: MIC/MBC microdilution; assay type: cell-based, Listeria monocytogenes; conditions: lowest concentration that killed 99.9%; TSB-YE; highest concentration 100 µM
[10] = tested on: L. monocytogenes ATCC 19116; assay: MIC/MBC microdilution; assay type: cell-based, Listeria monocytogenes; conditions: lowest concentration that killed 99.9%; TSB-YE; highest concentration 100 µM
[11] = tested on: L. monocytogenes ATCC 19117; assay: MIC/MBC microdilution; assay type: cell-based, Listeria monocytogenes; conditions: lowest concentration that killed 99.9%; TSB-YE; highest concentration 100 µM
[12] = tested on: L. monocytogenes ATCC 19118; assay: MIC/MBC microdilution; assay type: cell-based, Listeria monocytogenes; conditions: lowest concentration that killed 99.9%; TSB-YE; highest concentration 100 µM
L. monocytogenes NCT0890 = assay: MIC/MBC microdilution; assay type: cell-based, Listeria monocytogenes; conditions: lowest concentration that killed 99.9%; TSB-YE; highest concentration 100 µM
[13] = tested on: Acinetobacter baumannii ATCC 19606; assay: MIC/MBC microdilution; assay type: cell-based; conditions: NB, highest concentration 100 µM
Procedure: (§1) The microdilution method ([25]) was used to measure the MIC of mycoidesin against indicator strains (Table S2). HPLC-purified mycoidesin was weighed and dissolved in a liquid culture medium to prepare various concentrations of mycoidesin (200.00, 100.00, 50.00, 25.00, 12.50, 6.25, 3.13, 1.56, 0.78, 0.39, 0.20, and 0.10 µM). A volume of 50 µL of different concentrations of mycoidesin solutions and 50 µL culture (1 × 10^6 CFU/mL) of the indicator strain were mixed in 96-well plates. The final concentrations of mycoidesin were 100.00, 50.00, 25.00, 12.50, 6.25, 3.13, 1.56, 0.78, 0.39, 0.20, 0.10, and 0.05 µM. […] The minimum bactericidal concentration (MBC) was the lowest concentration that killed 99.9% of the bacterial population. Nisin A was purified (Cayman Chemical, USA) as previously described ([26]) and was used to measure and compare the MIC values of L. monocytogenes strains and mycoidesin.

[14] = tested on: Escherichia coli ATCC 25922; assay: MIC/MBC microdilution; assay type: cell-based; conditions: NB, highest concentration 100 µM
Procedure: as §1

[15] = tested on: Klebsiella pneumoniae CMCC 46117; assay: MIC/MBC microdilution; assay type: cell-based; conditions: NB, highest concentration 100 µM
Procedure: as §1

[16] = tested on: Pseudomonas aeruginosa ATCC 27853; assay: MIC/MBC microdilution; assay type: cell-based; conditions: NB, highest concentration 100 µM
Procedure: as §1

[17] = tested on: Salmonella Typhimurium ATCC 14028; assay: MIC/MBC microdilution; assay type: cell-based; conditions: NB, highest concentration 100 µM
Procedure: as §1

[18] = tested on: Salmonella enterica serotype Paratyphi CMCC 50093; assay: MIC/MBC microdilution; assay type: cell-based; conditions: NB, highest concentration 100 µM
Procedure: as §1

[19] = tested on: Serratia marcescens CMCC 41002; assay: MIC/MBC microdilution; assay type: cell-based; conditions: NB, highest concentration 100 µM
Procedure: as §1

[20] = tested on: Shigella serogroups CMCC 51105; assay: MIC/MBC microdilution; assay type: cell-based; conditions: NB, highest concentration 100 µM
Procedure: as §1

[21] = tested on: L. monocytogenes ATCC19111; assay: Intracellular accumulation of UDP-MurNAc-pentapeptide; assay type: cell-based, Listeria monocytogenes; conditions: mycoidesin 1× and 2× MIC, vancomycin 10× MIC; 60 min; chloramphenicol 130 µg/mL pre-incubation 15 min; HPLC, MS
Procedure: Bacillus cereus CMCC63301 and L. monocytogenes ATCC19111 were grown to an OD600 of 0.3 and incubated with chloramphenicol (130 µg/mL) for 15 min. Mycoidesin (1× and 2× MIC) and vancomycin (10× MIC; positive control) were added and incubated for 60 min. The cells were collected, added to boiling water, treated for 15 min, centrifuged, and the supernatant was lyophilized. The intracellular accumulation of the peptidoglycan precursor UDP-MurNAc-pentapeptide was analyzed using HPLC (Hypersil ODS column) and identified via mass spectrometry ([27]).

[22] = tested on: L. monocytogenes ATCC19111; assay: Time-kill curves (OD600 and CFU); assay type: cell-based, Listeria monocytogenes
Text: Cell growth was monitored hourly by measuring CFU on TSB plates and OD600 values of the cultures.

[23] = tested on: L. monocytogenes ATCC19111; assay: Potassium release and SEM (cell membrane damage); assay type: cell-based, Listeria monocytogenes; conditions: potassium release 1×, 8×, 32× MIC, 1 h; SEM 8× and 32× MIC, 3 h, 30°C
Procedure: The amount of potassium released was measured using a HI96750 Potassium Photometer.
Bacillus cereus CMCC63301 and L. monocytogenes ATCC19111 were grown in TSB medium to an OD600 of 0.3. […] The cells were harvested after centrifugation (6,000 × g, 10 min), washed with PBS buffer thrice, and fixed with 2.5% (vol/vol) glutaraldehyde for 12 h at 4°C. Subsequently, the cells were subjected to gradient dehydration for 10 min, treated with isoamyl acetate for 10 min, dried with a lyophilizer for 12 h, coated with gold-palladium, and observed using a Zeiss Gemini360 instrument ([18]).

[24] = lowest concentration that killed 99.9%

## C/C=C1\NC(=O)CNC(=O)[C@H](CCSC)NC(=O)[C@@H]2CS[C@@H](C)[C@@H](NC(=O)[C@@H]3CSC[C@@H](NC(=O)[C@H](CC(C)C)NC(=O)[C@H](CC(N)=O)NC(=O)[C@@H](N)Cc4ccc(O)cc4)C(=O)N[C@@H](C)C(=O)N[C@@H](C)C(=O)N[C@@H]([C@@H](C)CC)C(=O)N[C@@H](C)C(=O)N[C@@H](CC(=O)O)C(=O)N[C@@H](C)C(=O)N[C@@H](C)C(=O)NCC(=O)N[C@@H](CC(C)C)C(=O)N[C@@H](CCCCN)C(=O)NCC(=O)N[C@@H](CC(N)=O)C(=O)N[C@@H](Cc4ccc(O)cc4)C(=O)NCC(=O)N[C@@H](CCCCN)C(=O)N[C@@H](Cc4ccccc4)C(=O)N3)C(=O)N[C@@H](Cc3ccc(O)cc3)C(=O)N[C@H](CSC[C@@H](C(=O)NCC(=O)N[C@@H](CO)C(=O)O)NC(=O)[C@H](CO)NC(=O)[C@H](C(C)C)NC1=O)C(=O)N[C@@H](C)C(=O)N[C@@H](CCC(=O)O)C(=O)N2 [mycoidesin]
[1]
  MBC: NA (No activity was detected even at the highest concentration of mycoidesin (100 µM))
[2]
  MBC: NA (No activity was detected even at the highest concentration of mycoidesin (100 µM))
[3]
  MBC: NA (No activity was detected even at the highest concentration of mycoidesin (100 µM))
[4]
  MBC: NA (No activity was detected even at the highest concentration of mycoidesin (100 µM))
[5]
  MBC: NA (No activity was detected even at the highest concentration of mycoidesin (100 µM))
[6]
  MBC: NA (No activity was detected even at the highest concentration of mycoidesin (100 µM))
[7]
  MBC: NA (No activity was detected even at the highest concentration of mycoidesin (100 µM))
L. monocytogenes LM201
  MBC: NA (No activity was detected even at the highest concentration of mycoidesin (100 µM))
L. monocytogenes LM605
  MBC: NA (No activity was detected even at the highest concentration of mycoidesin (100 µM))
[8]
  MBC: NA (No activity was detected even at the highest concentration of mycoidesin (100 µM))
[9]
  MBC: NA (No activity was detected even at the highest concentration of mycoidesin (100 µM))
[10]
  MBC: NA (No activity was detected even at the highest concentration of mycoidesin (100 µM))
[11]
  MBC: NA (No activity was detected even at the highest concentration of mycoidesin (100 µM))
[12]
  MBC: NA (No activity was detected even at the highest concentration of mycoidesin (100 µM))
L. monocytogenes NCT0890
  MBC: NA (No activity was detected even at the highest concentration of mycoidesin (100 µM))
[13]; [24]
  MBC: NA (No activity was detected even at the highest concentration of mycoidesin (100 µM))
[13]; microdilution, 30°C, 16 h
  MIC: NA (No activity was detected even at the highest concentration of mycoidesin (100 µM))
[14]; [24]
  MBC: NA (No activity was detected even at the highest concentration of mycoidesin (100 µM))
[14]; microdilution, 30°C, 16 h
  MIC: NA (No activity was detected even at the highest concentration of mycoidesin (100 µM))
[15]; [24]
  MBC: NA (No activity was detected even at the highest concentration of mycoidesin (100 µM))
[15]; microdilution, 30°C, 16 h
  MIC: NA (No activity was detected even at the highest concentration of mycoidesin (100 µM))
[16]; [24]
  MBC: NA (No activity was detected even at the highest concentration of mycoidesin (100 µM))
[16]; microdilution, 30°C, 16 h
  MIC: NA (No activity was detected even at the highest concentration of mycoidesin (100 µM))
[17]; [24]
  MBC: NA (No activity was detected even at the highest concentration of mycoidesin (100 µM))
[17]; microdilution, 30°C, 16 h
  MIC: NA (No activity was detected even at the highest concentration of mycoidesin (100 µM))
[18]; [24]
  MBC: NA (No activity was detected even at the highest concentration of mycoidesin (100 µM))
[18]; microdilution, 30°C, 16 h
  MIC: NA (No activity was detected even at the highest concentration of mycoidesin (100 µM))
[19]; [24]
  MBC: NA (No activity was detected even at the highest concentration of mycoidesin (100 µM))
[19]; microdilution, 30°C, 16 h
  MIC: NA (No activity was detected even at the highest concentration of mycoidesin (100 µM))
[20]; [24]
  MBC: NA (No activity was detected even at the highest concentration of mycoidesin (100 µM))
[20]; microdilution, 30°C, 16 h
  MIC: NA (No activity was detected even at the highest concentration of mycoidesin (100 µM))
[21]
  Intracellular accumulation of UDP-MurNAc-pentapeptide: observed
[22]; 1×–32× MIC (0.39–12.5 µM), TSB, 30°C, 3 h, OD600
  effect on growth: suppressed by mycoidesin in a time- and concentration-dependent manner
[22]; low and high concentrations (1×–32× MIC, 0.39–12.5 µM)
  type of antimicrobial effect: bacteriostatic activity
[22]; up to 32× MIC (12.5 µM), 30°C, 3 h, CFU
  cell death (viable count): did not cause L. monocytogenes cell membrane damage or cell death
[23]
  cell membrane damage: did not cause L. monocytogenes cell membrane damage or cell death
